The supplement of paper PMC11061612

How the values were obtained:
[1] = tested on: A3-KAW (B-Cell Non-Hodgkin's Lymphoma); test: Bliss excess, mean over the matrix (fraction); higher = more synergy
In short: (§1)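 Bliss excess equals the observed combination effect minus the expected value EA + EB − EA·EB, where EA and EB are the effects of each agent alone. Combination Emax is the second-highest inhibition within the matrix. Inhibition was scaled from CellTiter-Glo 2.0 luminescence, with 0 set by vehicle wells and 1 by blank wells, after 72 hours of two-drug dosing of cells plated in 1536-well plates.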

[2] = tested on: A549 (Lung Adenocarcinoma); test: as above
In short: as §1

CAS-1 (Glioblastoma) = test: as above
In short: as §1

[3] = tested on: CCK-81 (Colorectal Carcinoma); test: as above
In short: as §1

[4] = tested on: COLO-320-HSR (Colorectal Carcinoma); test: as above
In short: as §1

[5] = tested on: COR-L311 (Small Cell Lung Carcinoma); test: as above
In short: as §1

[6] = tested on: ECC10 (Gastric Carcinoma); test: as above
In short: as §1

Hs-445 (Non-Cancerous) = test: as above
In short: as §1

[7] = tested on: NCI-H1666 (Lung Adenocarcinoma); test: as above
In short: as §1

[8] = tested on: NCI-H1693 (Lung Adenocarcinoma); test: as above
In short: as §1

[9] = tested on: NCI-H2066 (Squamous Cell Lung Carcinoma); test: as above
In short: as §1

[10] = tested on: NCI-H64 (Small Cell Lung Carcinoma); test: as above
In short: as §1

NY (Osteosarcoma) = test: as above
In short: as §1

[11] = tested on: PANC-10-05 (Pancreatic Carcinoma); test: as above
In short: as §1

[12] = tested on: TT (Thyroid Gland Carcinoma); test: as above
In short: as §1

[13] = tested on: TT2609-C02 (Thyroid Gland Carcinoma); test: as above
In short: as §1

[14] = tested on: VCaP (Prostate Carcinoma); test: as above
In short: as §1

[15] = tested on: NCI-H1693 (Lung Adenocarcinoma); test: combination Emax (second highest fraction inhibited in the dose matrix, 72 h); higher = more inhibition; extreme values may be limits of the assay
In short: as §1

[16] = tested on: NCI-H2141 (Small Cell Lung Carcinoma); test: as above
In short: as §1

[17] = tested on: SISO (Cervical Carcinoma); test: as above
In short: as §1

Row | SMILES | Bliss excess [1] | Bliss excess [2] | Bliss excess (CAS-1 (Glioblastoma)) | Bliss excess [3] | Bliss excess [4] | Bliss excess [5] | Bliss excess [6] | Bliss excess (Hs-445 (Non-Cancerous)) | Bliss excess [7] | Bliss excess [8] | Bliss excess [9] | Bliss excess [10] | Bliss excess (NY (Osteosarcoma)) | Bliss excess [11] | Bliss excess [12] | Bliss excess [13] | Bliss excess [14] | combination Emax [15] | combination Emax [16] | combination Emax [17]
1 | COc1nnc2ccc(N3CCC(c4ccc(OCCN5CCN(C)C(=O)[C@H]5C)cc4)CC3)nn12 [AZD5153] + Cc1c2c(nn1C)CSCc1cc(n(C)n1)CSc1cc(c3ccccc3c1)OCCCc1c(C(=O)O)n(C)c3c-2c(Cl)ccc13 [AZD5991] (first compound max 1 µM, 7x7, partner max 1 µM) | -0.0289 | -0.0918 | -0.0333 | -0.0485 | -0.112 | -0.0225 | 0.0743 | -0.0723 | -0.0538 | -0.0418 | -0.0569 | -0.0074 | -0.0656 | -0.0759 | -0.0291 | -0.0295 | -0.0242 | 0.56 | 0.346 | 0.508
2 | COc1nnc2ccc(N3CCC(c4ccc(OCCN5CCN(C)C(=O)[C@H]5C)cc4)CC3)nn12 [AZD5153] + Cn1cnc2c(F)c(Nc3ccc(Br)cc3Cl)c(C(=O)NOCCO)cc21 [Selumetinib] (first compound max 1 µM, 7x7, partner max 10 µM) | 0.0182 | -0.0703 | -0.0548 | 0.0649 | -0.0095 | -0.0334 | 0.0419 | -0.0232 | -0.0631 | 0.0093 | -0.0123 | 0.0021 | -0.005 | -0.0736 | -0.0018 | -0.0074 | -0.059 | 0.569 | 0.276 | 0.452
3 | Cc1c2c(nn1C)CSCc1cc(n(C)n1)CSc1cc(c3ccccc3c1)OCCCc1c(C(=O)O)n(C)c3c-2c(Cl)ccc13 [AZD5991] + C1CN(CCC1(C(=O)N[C@@H](CCO)C2=CC=C(C=C2)Cl)N)C3=NC=NC4=C3C=CN4 [Capivasertib] (first compound max 1 µM, 7x7, partner max 3 µM) | 0.0236 | -0.0312 | -0.0094 | 0.0555 | 0.0007 | 0.0059 | 0.0934 | -0.0545 | 0.0151 | -0.0294 | -0.0197 | -0.0261 | 0.0079 | 0.0422 | -0.0499 | -0.019 | 0.0545 | 0.164 | 0.314 | 0.173
4 | Cc1c2c(nn1C)CSCc1cc(n(C)n1)CSc1cc(c3ccccc3c1)OCCCc1c(C(=O)O)n(C)c3c-2c(Cl)ccc13 [AZD5991] + C=CCn1c(=O)c2cnc(Nc3ccc(N4CCN(C)CC4)cc3)nc2n1-c1cccc(C(C)(C)O)n1 [AZD1775] (first compound max 1 µM, partner max 1 µM) | 0.0126 | -0.0488 | 0.0452 | -0.0116 | 0.045 | -0.0655 | 0.0696 | 0.0139 | 0.0037 | 0.0581 | -0.0231 | -0.0187 | -0.0177 | -0.0551 | 0.007 | 0.0087 | -0.011 | 0.386 | 0.652 | 0.663
5 | Cc1c2c(nn1C)CSCc1cc(n(C)n1)CSc1cc(c3ccccc3c1)OCCCc1c(C(=O)O)n(C)c3c-2c(Cl)ccc13 [AZD5991] + CC1(C)CCC(CN2CCN(c3ccc(C(=O)NS(=O)(=O)c4ccc(NCC5CCOCC5)c([N+](=O)[O-])c4)c(Oc4cnc5[nH]ccc5c4)c3)CC2)=C(c2ccc(Cl)cc2)C1 [Venetoclax] (first compound max 1 µM, 7x7, partner max 1 µM) | 0.0191 | -0.0642 | -0.0284 | 0.0362 | 0.0419 | 0.157 | 0.277 | 0.0357 | -0.0478 | -0.025 | -0.0303 | 0.0308 | 0.0232 | -0.0506 | 0.0887 | -0.0069 | -0.0351 | 0.143 | 0.659 | 0.151
6 | Cc1c2c(nn1C)CSCc1cc(n(C)n1)CSc1cc(c3ccccc3c1)OCCCc1c(C(=O)O)n(C)c3c-2c(Cl)ccc13 [AZD5991] + CCN(CCO)CCCOc1ccc2c(Nc3cc(CC(=O)Nc4cccc(F)c4)[nH]n3)ncnc2c1 [AZD2811] (first compound max 1 µM, 7x7, partner max 1 µM) | 0.0434 | -0.0592 | 0.061 | 0.0227 | 0.0198 | -0.0057 | 0.0058 | 0.0869 | -0.0133 | 0.0102 | 0.0154 | 0.144 | 0.0542 | -0.0242 | -0.0735 | 0.0119 | 0.08 | 0.211 | 0.428 | 0.808
7 | Cc1c2c(nn1C)CSCc1cc(n(C)n1)CSc1cc(c3ccccc3c1)OCCCc1c(C(=O)O)n(C)c3c-2c(Cl)ccc13 [AZD5991] + CN(C)CCCOc1ccc(-c2ccc3ncc4c(c3c2)n(C2CCOCC2)c(=O)n4C)cn1 [AZD0156] (first compound max 1 µM, 7x7, partner max 1 µM) | -0.0252 | -0.026 | 0.0497 | 0.0379 | 0.0531 | -0.0088 | -0.0158 | -0.106 | 0.0068 | -0.0254 | -0.0084 | -0.0708 | 0.0299 | -0.0048 | -0.071 | 0.0199 | 0.0034 | 0.211 | 0.265 | 0.201
8 | Cc1c2c(nn1C)CSCc1cc(n(C)n1)CSc1cc(c3ccccc3c1)OCCCc1c(C(=O)O)n(C)c3c-2c(Cl)ccc13 [AZD5991] + C[C@@H]1COCCN1C2=NC(=NC(=C2)C3(CC3)[S@](=N)(=O)C)C4=C5C=CNC5=NC=C4 [AZD6738] (first compound max 1 µM, 7x7, partner max 10 µM) | 0.0161 | 0.0007 | 0.109 | 0.0173 | 0.0363 | 0.0018 | 0.0683 | -0.0064 | 0.0156 | 0.0316 | 0.0148 | 0.0193 | 0.0486 | 0.0415 | -0.0066 | 0.0043 | 0.0348 | 0.432 | 0.628 | 0.607
9 | Cc1c2c(nn1C)CSCc1cc(n(C)n1)CSc1cc(c3ccccc3c1)OCCCc1c(C(=O)O)n(C)c3c-2c(Cl)ccc13 [AZD5991] + C[C@@H](Nc1cc(F)cc(F)c1)c1cc(C(=O)N(C)C)cc2c(=O)cc(N3CCOCC3)oc12 [AZD8186] (first compound max 1 µM, 7x7, partner max 3 µM) | -0.0084 | 0.01 | -0.0108 | 0.0103 | -0.0004 | -0.0098 | 0.024 | -0.0177 | -0.0359 | -0.0461 | -0.0445 | -0.0067 | 0.08 | -0.0473 | -0.0219 | -0.0192 | -0.0086 | 0.236 | 0.3 | 0.123
10 | Cc1c2c(nn1C)CSCc1cc(n(C)n1)CSc1cc(c3ccccc3c1)OCCCc1c(C(=O)O)n(C)c3c-2c(Cl)ccc13 [AZD5991] + Cc1cc2ncnn2cc1Nc1ncc2c(n1)n(C1CCOCC1)c(=O)n2C [AZD7648] (first compound max 1 µM, 7x7, partner max 10 µM) | -0.0101 | -0.111 | -0.0723 | -0.0103 | -0.0184 | 0.0101 | -0.0409 | -0.0109 | -0.0666 | -0.026 | -0.0141 | -0.0186 | -0.0319 | -0.0758 | -0.0112 | -0.038 | -0.0067 | 0.256 | 0.307 | 0.191
11 | Cc1c2c(nn1C)CSCc1cc(n(C)n1)CSc1cc(c3ccccc3c1)OCCCc1c(C(=O)O)n(C)c3c-2c(Cl)ccc13 [AZD5991] + Cn1cnc2c(F)c(Nc3ccc(Br)cc3Cl)c(C(=O)NOCCO)cc21 [Selumetinib] (first compound max 1 µM, 7x7, partner max 3 µM) | 0.045 | -0.0344 | -0.0036 | 0.009 | 0.0173 | -0.0212 | 0.0176 | 0.0106 | 0.0499 | 0.0314 | 0.0459 | -0.026 | -0.0312 | -0.0186 | -0.0526 | -0.0402 | -0.0213 | 0.319 | 0.22 | 0.173
12 | C[C@@H]1COCCN1c1cc(C2([S@](C)(=N)=O)CC2)nc(-c2ccnc3[nH]ccc23)n1 [AZD6738] + O=C(c1cc(Cc2n[nH]c(=O)c3ccccc23)ccc1F)N1CCN(C(=O)C2CC2)CC1 [Olaparib] (first compound max 10 µM, 7x7, partner max 10 µM) | -0.0085 | 0.0273 | 0.0743 | -0.0049 | -0.0357 | -0.0507 | 0.0666 | -0.0067 | 0.0073 | -0.0082 | -0.0682 | -0.0686 | -0.0521 | -0.0133 | -0.0219 | 0.0176 | -0.0107 | 0.298 | 0.51 | 0.595
